# In patent EP4737451A1 (Dong Wha Pharm. Co., Ltd., priority 2023, dated 2025):
# What was measured:
# hPBMC TNFα = assay: Cell-based inflammatory cytokine secretion inhibition (LPS-stimulated PBMC, hTNF-α ELISA); settings: human PBMC, LPS 1 µg/mL, hTNF-α by ELISA, mean; read-out: hPBMC TNFα IC50_mean
# Description: An experiment on inflammatory cytokine secretion inhibition of the compound of the present invention was conducted.
# PBMC (LONZA, peripheral blood mononuclear cells) isolated from human whole blood was dispensed into a 96-well plate at a density of 1.0 X 10^5 cells/well, and the cells were stabilized for 20 hours. After that, a test compound diluted at each of four concentrations was added to a Roswell Park Memorial Institute (RPMI) medium, reacted for one hour, treated with lipopolysaccharide (LPS) to reach a final concentration of 1 µg/mL, and further reacted for one hour. hTNF-α, which is an inflammatory cytokine, was measured by an enzyme linked immunosorbent assay using an ELISA kit from Goma Biotech. A cell supernatant, a standard drug, and an antibody were added to an ELISA-plate and reacted for four hours in total, after which the plate was washed, reacted with streptavidin-HRP for 30 minutes, and washed again. After that, a TMB substrate was added and reacted in a dark place, and when a color was sufficiently developed, a stop solution was added to stop the reaction. hTNF-α was measured by measuring absorbance at 450 nm using equipment for absorption measurement (Microplate Reader from BioTeK). An activity inhibition rate was calculated from a measured absorbance value, a % inhibition for each concentration of the test compound was calculated, a 50% inhibition concentration (IC50 value) was analyzed through a non-linear regression analysis, and the results are shown in Table 4.
# IRAK4 enzyme = target: T1, IRAK4 enzyme (Homo sapiens, UniProt Q9NWZ3); assay: IRAK4 enzyme activity inhibition (ADP-Glo, Promega kit); type: biochemical; settings: for inhibition at 0.1 µM: test compound 0.1 uM; for inhibition at 1 µM: test compound 1 uM
# T1 construct: purchased Promega V2621
# T1 sequence (Q9NWZ3 1-460): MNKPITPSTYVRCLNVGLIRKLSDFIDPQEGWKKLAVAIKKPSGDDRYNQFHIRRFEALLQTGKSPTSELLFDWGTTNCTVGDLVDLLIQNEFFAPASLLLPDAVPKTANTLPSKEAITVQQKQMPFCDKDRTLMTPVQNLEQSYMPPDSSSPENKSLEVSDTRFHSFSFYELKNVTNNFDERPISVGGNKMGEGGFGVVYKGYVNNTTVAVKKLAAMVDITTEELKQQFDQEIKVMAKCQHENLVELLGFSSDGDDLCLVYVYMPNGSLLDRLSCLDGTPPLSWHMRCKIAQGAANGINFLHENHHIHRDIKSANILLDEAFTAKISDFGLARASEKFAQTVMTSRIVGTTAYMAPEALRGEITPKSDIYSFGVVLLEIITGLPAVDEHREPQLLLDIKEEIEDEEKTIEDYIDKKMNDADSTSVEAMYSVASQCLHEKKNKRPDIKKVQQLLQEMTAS
# Description: An experiment on IRAK4 enzyme activity inhibition of the compound of the present invention was conducted.
# An IRAK4 enzyme kit (purchased from Promega, product number: V2621) was used to dilute a mixed solution between 0.1 µg/µL of myelin basic protein (MBP), which is an enzyme-reactive substrate, and 1.25 mM of ATP with a reaction buffer (40 mM Tris-HCl, pH 7.5; 20 mM MgCl2; 0.1 mg/mL BSA; 50 µM DTT) according to the instructions, so as to dispense 2 µL in a 384-well white plate, and then to add 1 µL of a test compound, which was gradient diluted starting from 1 mM, to a 384-well plate. After that, an IRAK4 enzyme was diluted with a reaction buffer to a final concentration of 5 ng/µL, then 2 µL/well was dispensed into a 384-well white plate and reacted at 37°C for 60 minutes. After completion of a reaction, an ADP-GloTM enzyme test kit (purchased from Promega, product number: V9102) was used to add 5 µL of ADP-Glo reaction reagent and cause a reaction at 37°C for 40 minutes, and then 10 µL of enzyme chromogenic reagent was added again to measure a luminescence signal using equipment for measuring absorbance (THECAN, Microplate Reader). An activity inhibition rate was calculated from a measured value, and a 50% inhibition concentration (IC50 value) was analyzed through a non-linear regression analysis based on the % inhibition for each concentration of the test compound, and is shown in Table 2.
# IRAK1 enzyme = target: T2, IRAK1 enzyme (Homo sapiens, UniProt P51617); assay: IRAK1 enzyme activity inhibition (ADP-Glo, Promega kit); type: biochemical; settings: for inhibition at 0.1 µM: test compound 0.1 uM; for inhibition at 1 µM: test compound 1 uM
# T2 construct: purchased Promega VA7477
# Description: An experiment on IRAK1 enzyme activity inhibition of the compound of the present invention was conducted.
# An IRAK1 enzyme kit (purchased from Promega, product number: VA7477) was used to dilute a mixed solution between 0.1 µg/µL of protein kinase B (AKT), which is an enzyme-reactive substrate, and 1.25 mM of ATP with a reaction buffer (40 mM Tris-HCl, pH 7.5; 20 mM MgCl2; 0.1 mg/mL BSA; 50 µM DTT) according to the instructions, so as to dispense 2 µL in a 384-well white plate, and then to add 1 µL of a test compound, which was gradient diluted starting from 1 mM, to a 384-well white plate. After that, an IRAK1 enzyme was diluted with a reaction buffer to a final concentration of 5 ng/µL, then 2 µL/well was dispensed into a 384-well white plate and reacted at 37°C for 60 minutes. After completion of a reaction, an ADP-GloTM enzyme test kit (purchased from Promega, product number: V9102) was used to add 5 µL of ADP-Glo reaction reagent and cause a reaction at 37°C for 40 minutes, and then 10 µL of enzyme chromogenic reagent was added again to measure a luminescence signal using equipment for measuring absorbance (THECAN, Microplate Reader). An activity inhibition rate was calculated from a measured value, and a 50% inhibition concentration (IC50 value) was analyzed through a non-linear regression analysis based on the % inhibition for each concentration of the test compound, and is shown in Table 3.
# T2 sequence (P51617 whole entry): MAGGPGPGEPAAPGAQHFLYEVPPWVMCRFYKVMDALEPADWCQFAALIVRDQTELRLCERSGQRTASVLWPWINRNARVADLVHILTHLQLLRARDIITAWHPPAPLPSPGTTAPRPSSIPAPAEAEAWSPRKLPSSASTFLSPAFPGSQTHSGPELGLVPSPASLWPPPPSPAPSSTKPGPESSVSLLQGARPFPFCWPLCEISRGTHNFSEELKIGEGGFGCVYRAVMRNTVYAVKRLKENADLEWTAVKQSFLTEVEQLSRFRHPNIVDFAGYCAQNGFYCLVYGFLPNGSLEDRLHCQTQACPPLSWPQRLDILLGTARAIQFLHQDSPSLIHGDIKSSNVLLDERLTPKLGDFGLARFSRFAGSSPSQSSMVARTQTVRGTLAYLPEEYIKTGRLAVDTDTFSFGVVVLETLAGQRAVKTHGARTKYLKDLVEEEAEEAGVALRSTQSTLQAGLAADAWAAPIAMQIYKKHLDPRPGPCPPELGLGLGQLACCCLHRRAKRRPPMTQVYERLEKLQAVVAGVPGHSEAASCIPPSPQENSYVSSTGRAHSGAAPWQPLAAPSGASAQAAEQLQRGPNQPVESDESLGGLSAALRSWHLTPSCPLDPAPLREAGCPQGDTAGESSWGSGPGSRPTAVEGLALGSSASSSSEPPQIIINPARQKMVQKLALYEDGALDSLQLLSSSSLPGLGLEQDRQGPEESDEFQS
smiles,measurement,setting,value
"CC(C)(O)CCn1cc2cc(NC(=O)c3cccc(S(N)(=O)=O)c3)c(N3CCC(C(C)(C)O)CC3)cc2n1 [Example 29, N-(2-(3-hydroxy-3-methylbutyl)-6-(4-(2-hydroxypropan-2-yl)piperidin-1-yl)-2H-indazol-5-yl)-3-sulfamoylbenzamide]",IC50,hPBMC TNFα,20.4 nM
same,IC50,IRAK4 enzyme,0.88 nM
same,inhibition at 0.1 µM,IRAK4 enzyme,93.3%
same,inhibition at 0.1 µM,IRAK1 enzyme,54.2%
"CC(C)(O)CCn1cc2cc(NC(=O)c3cncc([N+](=O)[O-])c3)c(N3CCOCC3)cc2n1 [Example 2, N-(2-(3-hydroxy-3-methylbutyl)-6-morpholino-2H-indazol-5-yl)-5-nitronicotinamide]",IC50,hPBMC TNFα,526 nM
same,IC50,IRAK4 enzyme,56.7 nM
same,inhibition at 0.1 µM,IRAK4 enzyme,72.7%
same,inhibition at 1 µM,IRAK4 enzyme,86.5%
same,inhibition at 0.1 µM,IRAK1 enzyme,32.1%
"CC(C)(O)CCn1cc2cc(NC(=O)c3cccc([N+](=O)[O-])c3)c(N3CCC(O)CC3)cc2n1 [Example 32, N-(2-(3-hydroxy-3-methylbutyl)-6-(4-hydroxypiperidin-1-yl)-2H-indazol-5-yl)-3-nitrobenzamide]",IC50,hPBMC TNFα,113 nM
same,IC50,IRAK4 enzyme,2 nM
same,inhibition at 0.1 µM,IRAK4 enzyme,87.1%
same,inhibition at 0.1 µM,IRAK1 enzyme,17.5%
same,inhibition at 1 µM,IRAK1 enzyme,52%
"CC(C)(O)CCn1cc2cc(NC(=O)c3ccc(N)c([N+](=O)[O-])c3)c(N3CCOCC3)cc2n1 [Example 23, 4-amino-N-(2-(3-hydroxy-3-methylbutyl)-6-morpholino-2H-indazol-5-yl)-3-nitrobenzamide]",IC50,hPBMC TNFα,601 nM
same,IC50,IRAK4 enzyme,10.5 nM
same,inhibition at 0.1 µM,IRAK4 enzyme,88%
same,inhibition at 0.1 µM,IRAK1 enzyme,26%
same,inhibition at 1 µM,IRAK1 enzyme,45.3%
"CC(C)(O)CCn1cc2cc(NC(=O)c3cccc([N+](=O)[O-])c3)c(N3CCOCC3)cc2n1 [Example 3, N-(2-(3-hydroxy-3-methylbutyl)-6-morpholino-2H-indazol-5-yl)-3-nitrobenzamide]",IC50,hPBMC TNFα,51.8 nM
same,IC50,IRAK4 enzyme,0.2 nM
same,inhibition at 0.1 µM,IRAK4 enzyme,81.7%
same,inhibition at 1 µM,IRAK4 enzyme,94.4%
same,IC50,IRAK1 enzyme,2600 nM
"CC(C)(O)CCn1cc2cc(NC(=O)c3cccc(-c4ccn[nH]4)n3)c(N3CCOCC3)cc2n1 [Example 21, N-(2-(3-hydroxy-3-methylbutyl)-6-morpholino-2H-indazol-5-yl)-6-(1H-pyrazol-5-yl)picolinamide]",IC50,hPBMC TNFα,11.9 nM
same,IC50,IRAK4 enzyme,1.5 nM
same,inhibition at 0.1 µM,IRAK4 enzyme,89.3%
same,inhibition at 1 µM,IRAK4 enzyme,97.9%
same,IC50,IRAK1 enzyme,70 nM
same,inhibition at 0.1 µM,IRAK1 enzyme,67.2%
same,inhibition at 1 µM,IRAK1 enzyme,82.4%
CC(C)(O)CCn1cc2cc(NC(=O)c3cccc(S(N)(=O)=O)c3)c(N3CCOCC3)cc2n1 [Example 15],IC50,hPBMC TNFα,575 nM
same,IC50,IRAK4 enzyme,3.7 nM
same,inhibition at 0.1 µM,IRAK4 enzyme,88.8%
same,inhibition at 1 µM,IRAK4 enzyme,95.2%
same,inhibition at 0.1 µM,IRAK1 enzyme,28.5%
same,inhibition at 1 µM,IRAK1 enzyme,66.5%
"CC(C)(O)CCn1cc2cc(NC(=O)c3cccc([N+](=O)[O-])c3)c(-c3ccc(N4CCOCC4)cc3)cc2n1 [Example 37, N-(2-(3-hydroxy-3-methylbutyl)-6-(4-morpholinophenyl)-2H-indazol-5-yl)-3-nitrobenzamide]",inhibition at 0.1 µM,IRAK4 enzyme,52.2%
same,inhibition at 0.1 µM,IRAK1 enzyme,26.3%
same,inhibition at 1 µM,IRAK1 enzyme,31%
"CN(C)CCn1cc2cc(NC(=O)c3cccc(C(N)=O)c3)c(-c3ccsc3)cc2n1 [Example 1, N-(2-(2-(dimethylamino)ethyl)-6-(thiophen-3-yl)-2H-indazol-5-yl)isophthalamide]",inhibition at 0.1 µM,IRAK4 enzyme,19.1%
same,inhibition at 0.1 µM,IRAK1 enzyme,42.4%
"CC(C)(O)CCn1cc2cc(NC(=O)c3cccc(S(N)(=O)=O)c3)c(N3CCC(O)CC3)cc2n1 [Example 31, N-(2-(3-hydroxy-3-methylbutyl)-6-(4-hydroxypiperidin-1-yl)-2H-indazol-5-yl)-3-sulfamoylbenzamide]",IC50,IRAK4 enzyme,13.4 nM
same,inhibition at 0.1 µM,IRAK4 enzyme,88%
same,inhibition at 0.1 µM,IRAK1 enzyme,30.6%
same,inhibition at 1 µM,IRAK1 enzyme,66.7%
